Test results reported in patent publication US20220396569A1 (Carmot Therapeutics, Inc., priority 2021, published 2022).

What follows are molecules tested against T1, human GLP-1 receptor (Homo sapiens, UniProt P43220) (assay: GLP-1R cAMP Assay (HitHunter cAMP accumulation)). Conditions: cAMP accumulation, CHO cells stably overexpressing human GLP-1 receptor, 30 min treatment; read-out: EC50.
T1 construct: expressed in transfected cells
Format: cell-based
Outline: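 CHO cells stably expressing human GLP-1R, 10,000 cells/well in HBSS with 10 mM HEPES and 625 μM IBMX, were mixed with anti-cAMP antibody reagent. Compound was applied as a 20-point dose response in triplicate for 30 min. After lysis and overnight detection, luminescence was read and dose-response curves analysed.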

T1 sequence (P43220 24-463): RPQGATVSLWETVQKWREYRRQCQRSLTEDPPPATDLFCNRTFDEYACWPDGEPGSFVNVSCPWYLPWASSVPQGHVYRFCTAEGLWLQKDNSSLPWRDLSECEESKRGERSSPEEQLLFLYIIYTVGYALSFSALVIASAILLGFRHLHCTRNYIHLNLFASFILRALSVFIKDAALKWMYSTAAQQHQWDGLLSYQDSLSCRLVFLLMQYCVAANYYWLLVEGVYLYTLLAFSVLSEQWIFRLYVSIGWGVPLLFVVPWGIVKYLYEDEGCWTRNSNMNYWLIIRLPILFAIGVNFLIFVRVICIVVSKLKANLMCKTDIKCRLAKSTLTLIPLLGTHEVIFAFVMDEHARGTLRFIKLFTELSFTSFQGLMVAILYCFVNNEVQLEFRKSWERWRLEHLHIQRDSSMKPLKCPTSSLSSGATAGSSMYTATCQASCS

`N#CCC1(Cn2c(CN3CC[C@H](c4ccnc(COc5ccc(Cl)cc5F)c4)C3)nc3ccc(C(=O)O)cc32)CC1` [Compound 433, 2-{[(3R)-3-{2-[(4-chloro-2-fluorophenoxy)methyl]pyridin-4-yl}pyrrolidin-1-yl]methyl}-1-{[1-(cyanomethyl)cyclopropyl]methyl}-1H-1,3-benzodiazole-6-carboxylic acid] and `O=C(O)c1ccc2nc(CN3CC[C@H](c4cccc(COc5ccc(Cl)cc5F)c4)C3)n(C[C@@H]3CCO3)c2c1` (single isomer, unassigned) [Example 412] fall in the same range of EC50: 50 to 500 nM for the first, 50 to 500 nM for the second.

`CCn1cncc1Cn1c(CN2CC(=Cc3ccnc(COc4ccc(Cl)cc4C#N)c3)C2)nc2ccc(C(=O)O)cc21` [Compound 226, 2-{[3-({2-[(4-chloro-2-cyanophenoxy)methyl]pyridin-4-yl}methylidene)azetidin-1-yl]methyl}-1-[(1-ethyl-1H-imidazol-5-yl)methyl]-1H-1,3-benzodiazole-6-carboxylic acid] and `CCn1cncc1Cn1c(CN2C[C@@H](Oc3ccnc(COc4ccc(Cl)cc4Cl)c3)[C@@H]2C)nc2ccc(C(=O)O)cc21` [Compound 293, 2-{[(2S,3R)-3-({2-[(2,4-dichlorophenoxy)methyl]pyridin-4-yl}oxy)-2-methylazetidin-1-yl]methyl}-1-[(1-ethyl-1H-imidazol-5-yl)methyl]-1H-1,3-benzodiazole-6-carboxylic acid] cannot be ordered by EC50: less than 50 nM for the first, less than 50 nM for the second.

`O=C(O)c1ccc2nc(CN3CC(Oc4cccc(COc5ccc(Cl)cc5Cl)c4)C3)n(Cc3ccno3)c2c1` [Compound 237, 2-[(3-{3-[(2,4-dichlorophenoxy)methyl]phenoxy}azetidin-1-yl)methyl]-1-[(1,2-oxazol-5-yl)methyl]-1H-1,3-benzodiazole-6-carboxylic acid] and `O=C(O)c1ccc2nc(CN3CC(Oc4cccc(COc5ccc(Cl)cc5Cl)c4)C3)n(Cc3ncco3)c2c1` [Compound 228, 2-[(3-{3-[(2,4-dichlorophenoxy)methyl]phenoxy}azetidin-1-yl)methyl]-1-[(1,3-oxazol-2-yl)methyl]-1H-1,3-benzodiazole-6-carboxylic acid] cannot be ordered by EC50: less than 50 nM for the first, less than 50 nM for the second.

`N#Cc1ccc(OCc2nc(C34CC3CN(Cc3nc5ccc(C(=O)O)cc5n3C[C@@H]3CCO3)C4)ccc2F)c(Cl)c1` (stereo partly drawn) [Compound 524, 2-[(1-{6-[(2-chloro-4-cyanophenoxy)methyl]-5-fluoropyridin-2-yl}-3-azabicyclo[3.1.0]hexan-3-yl)methyl]-1-{[(2S)-oxetan-2-yl]methyl}-1H-1,3-benzodiazole-6-carboxylic acid] and `N#Cc1ccc(OCc2cc(Oc3cnc(Cc4nc5c(F)cc(C(=O)O)cc5n4C[C@@H]4CCO4)c(F)c3)ccn2)c(F)c1` [Compound 542, (S)-2-((5-((2-((4-Cyano-2-fluorophenoxy)methyl)pyridin-4-yl)oxy)-3-fluoropyridin-2-yl)methyl)-4-fluoro-1-(oxetan-2-ylmethyl)-1H-benzo[d]imidazole-6-carboxylic acid] cannot be ordered by EC50: less than 50 nM for the first, less than 50 nM for the second.

`N#CCC1(Cn2c(CN3CC=C(c4ccc(F)c(COc5ccc(Cl)cc5F)n4)C3)nc3c(F)cc(C(=O)O)cc32)CC1` [Compound 430, 2-[(3-{6-[(4-chloro-2-fluorophenoxy)methyl]-5-fluoropyridin-2-yl}-2,5-dihydro-1H-pyrrol-1-yl)methyl]-1-{[1-(cyanomethyl)cyclopropyl]methyl}-4-fluoro-1H-1,3-benzodiazole-6-carboxylic acid] showed an EC50 of less than 50 nM.
